Source: PMC10732257 (Oncotarget, 2023)

How the values were obtained:
[1] = Body weight change in MV-4-11 xenograft mice; assay type: in vivo, female BALB/c nude mice; settings: GFH009 maleate QW or BIW; enitociclib 10.0 mg/kg QW; i.v.
Procedure: Figure 7 Effect of GFH009 on body weight change in MV-4-11 xenografts. Body weight change of MV-4-11 xenograft (Figure 6) are expressed as mean ± SEM. ^* […], ^** P < 0.01, ^**** P < 0.0001, two-way ANOVA with Dunnett’s multiple comparisons test analysis compared to the vehicle-treated (control) group.
(§1) Animals dosed BIW were given treatments on 2 consecutive days. Weights were recorded for each mouse every day and tumor volumes assessed 3 times a week. Total treatment administration occurred across 3 consecutive weeks.
Relative change in body weight (RCBW) was determined as RCBW (%) = (Bwi – BW0)/BW0 × 100, where Bwi is body weight of a given mouse on a given day, and BW0 is initial body weight on the day they were assigned to a treatment group.

[2] = tested on: MV-4-11 xenograft; test: Anti-tumor efficacy in subcutaneous MV-4-11 xenograft model; assay type: in vivo, female BALB/c nude mice; settings: i.v.; GFH009 maleate 2.5, 5.0, 10.0 mg/kg QW or BIW; enitociclib 10.0 mg/kg QW; 3 weeks
Procedure: Figure 6 Anti-tumor efficacy of GFH009 in MV-4-11 xenograft model. MV-4-11 xenograft in female BALB/c nude mice were treated with GFH009 or enitociclib at the indicated doses (n = 8 mice per group). Results are expressed as mean ± SEM. ^* P < 0.05, ^**** P < 0.0001, two-way ANOVA with Dunnett’s multiple comparisons test analysis compared to Vehicle control group.
In vivo studies of tumor suppression were conducted in female BALB/c nude mice (Beijing Vital River Laboratory Animal Technology Co, Ltd., Changping, Beijing, China) bearing MV-4-11 xenografts (ATCC, Rockville, MD, USA). Each mouse was inoculated subcutaneously into the right dorsal-region with 5.0 × 10^6 cultured MV-4-11 cells in a total volume of 0.2 ml solution and allowed to develop xenograft tumors. Once tumor size had reached […], mice were divided into groups to receive 1 of 8 different treatment preparations dosed intravenously via the tail vein (Table 2). […] Enitociclib was administered as a 1.0 mg/mL solution in ultrapure water with 5% DMSO. Vehicle control was 50 mM PBS with no dissolved treatment drug.
as §1
Subcutaneous tumor volume (TV) was calculated as TV = (L × W^2)/2, where L was the length and W was the width of the tumor [11]. […] TGI was calculated as TGI (%) = (1 – avTi-0/ avCi-0)) × 100, where avTi-0 is the mean TV of the treatment group on a given day minus the mean TV of this treatment group on the day of group assignment, and avCi-0 is the mean TV of the vehicle control group on a given day minus the mean TV of the vehicle control group on the day of group assignment.
Tumor volume data was subjected to a base-10 logarithmic transformation and subsequent comparisons of TV across groups was made using two-way ANOVA (Dunnett’s multiple comparisons test). All plotting and statistical analyses were conducted using GraphPad Prism 6.00 (GraphPad Software).

With COc1cc(F)ccc1-c1cc(Nc2cc(CS(C)(=N)=O)ccn2)ncc1F (centres unmarked) [enitociclib, reference compound] the “Body weight of the mice during the administration period” value [1] was “decreased dramatically” and the “Tumor growth (total volume) compared to the vehicle control” value [2] was “inhibited tumor growth”.
